Test results published in the NIST ThermoML archive (doi:10.1021/acs.jced.7b00572).

Settings: Liquid, Vibrating wire viscometry

O=C(C(F)(F)C(F)(F)F)C(F)(C(F)(F)F)C(F)(F)F [dodecafluoro-2-methylpentan-3-one]
Settings	viscosity [mPa·s]
243.15 K, 10000 kPa	1.923
243.15 K, 20000 kPa	2.329
243.15 K, 40000 kPa	3.247
243.16 K, 100 kPa	1.597
243.16 K, 1000 kPa	1.628
243.16 K, 5000 kPa	1.749
243.16 K, 30000 kPa	2.761
253.15 K, 100 kPa	1.307
253.15 K, 1000 kPa	1.339
253.15 K, 5000 kPa	1.451
253.15 K, 10000 kPa	1.58
253.15 K, 20000 kPa	1.913
253.15 K, 30000 kPa	2.26
253.16 K, 40000 kPa	2.659
263.14 K, 5000 kPa	1.197
263.14 K, 10000 kPa	1.327
263.14 K, 20000 kPa	1.573
263.14 K, 30000 kPa	1.86
263.14 K, 40000 kPa	2.169
263.15 K, 100 kPa	1.082
263.15 K, 1000 kPa	1.107
273.14 K, 100 kPa	0.9209
273.14 K, 20000 kPa	1.332
273.15 K, 1000 kPa	0.9395
273.15 K, 5000 kPa	1.014
273.15 K, 10000 kPa	1.117
273.15 K, 30000 kPa	1.566
273.15 K, 40000 kPa	1.818
283.15 K, 100 kPa	0.7823
283.15 K, 1000 kPa	0.7955
283.15 K, 5000 kPa	0.8641
283.15 K, 10000 kPa	0.9569
283.15 K, 20000 kPa	1.142
283.15 K, 30000 kPa	1.345
283.15 K, 40000 kPa	1.567
293.14 K, 10000 kPa	0.8262
293.15 K, 100 kPa	0.6693
293.15 K, 1000 kPa	0.6851
293.15 K, 5000 kPa	0.7466
293.15 K, 40000 kPa	1.35
293.16 K, 20000 kPa	0.9881
293.16 K, 30000 kPa	1.156
303.14 K, 5000 kPa	0.6463
303.15 K, 100 kPa	0.5776
303.15 K, 10000 kPa	0.7173
303.15 K, 20000 kPa	0.861
303.15 K, 40000 kPa	1.177
303.16 K, 1000 kPa	0.5906
303.16 K, 30000 kPa	1.013
313.13 K, 1000 kPa	0.5123
313.14 K, 5000 kPa	0.5621
313.14 K, 20000 kPa	0.7566
313.14 K, 30000 kPa	0.8908
313.15 K, 100 kPa	0.5006
313.15 K, 10000 kPa	0.6263
313.15 K, 40000 kPa	1.033
323.16 K, 1000 kPa	0.4465
323.16 K, 20000 kPa	0.668
323.16 K, 30000 kPa	0.7894
323.16 K, 40100 kPa	0.9178
323.17 K, 5000 kPa	0.4933
323.17 K, 10000 kPa	0.5514
333.16 K, 1000 kPa	0.3918
333.16 K, 5000 kPa	0.4349
333.16 K, 10000 kPa	0.4891
333.16 K, 20000 kPa	0.5966
333.16 K, 30000 kPa	0.7059
333.16 K, 40000 kPa	0.8211
343.15 K, 5000 kPa	0.3849
343.15 K, 10000 kPa	0.4348
343.15 K, 20000 kPa	0.5345
343.15 K, 30000 kPa	0.6351
343.15 K, 40000 kPa	0.7373
343.16 K, 1000 kPa	0.342
353.15 K, 1000 kPa	0.3011
353.15 K, 30000 kPa	0.5739
353.15 K, 40000 kPa	0.6681
353.16 K, 5000 kPa	0.3426
353.16 K, 10000 kPa	0.3892
353.16 K, 20000 kPa	0.4822
363.15 K, 5000 kPa	0.3044
363.15 K, 10000 kPa	0.3496
363.15 K, 20000 kPa	0.436
363.15 K, 30000 kPa	0.5213
363.15 K, 40000 kPa	0.608
373.15 K, 5000 kPa	0.2711
373.15 K, 10000 kPa	0.3155
373.15 K, 20000 kPa	0.397
373.15 K, 30000 kPa	0.4778
373.15 K, 40000 kPa	0.5583
